According to patent US20040127511A1 (Pharmacia Corporation, priority 2002, published 2004):
Counter-ions that a name gives are not always drawn. Like-named read-outs stand apart in the source and are kept apart here.

Legend:
TNFα release, U937 cells = test: U937 Cell TNFα Release Assay (LPS-stimulated, TNFα ELISA); type: cell-based; conditions: Homo sapiens, read-out: TNFα release assay IC50
Method: U937 Cell TNFα Release Assay
The human monocyte-like cell line, U937 (ATCC #CRL-1593.2), is cultured in RPMI1640 media with 10% heat-inactivated fetal calf serum (GIBCO), glutamine and pen/strep at 37° C. and 5% CO2. Differentiation of U937 to monocytic/macrophage-like cells is induced by the addition of phorbol12-myristate 13-acetate (Sigma) at final concentration of 20 ng/ml to a culture of U937 cells at ˜0.5 million cells/ml and incubated for 24 hrs. The cells are centrifuged, washed with PBS and resuspended in fresh media without PMA and incubated for 24 hrs. Cells adherent to the culture flask are harvested by scraping, centrifugation, and resuspended in fresh media to 2 million cells/ml, and 0.2 ml is aliquoted to each of 96 wells in flat-bottom plate. Cells are then incubated for an additional 24 hrs to allow for recovery. […]
ELISA plates (NUNC-Immuno™ Plate Maxisorb™ Surface) were coated with purified mouse monoclonal IgG1 anti-human TNFα antibody (R&D Systems #MAB610; 1.25 ug/ml in sodium bicarbonate pH 8.0, 0.1 ml/well) and incubated at 4° C. […] Enzymatic conversion of ABTS to colored product was measured after 5-30 minutes using a SpectroMax 340 spectrophotometer (Molecular Devices) at 405 nm. TNF levels were quantitated from a recombinant human TNFα (R&D Systems #210-TA-010) standard curve using a quadratic parameter fit generated by SoftMaxPRO software. […]

[1] = test system: LPS-induced TNFα production; test: Rat LPS assay: Lipopolysaccharide (LPS)-Induced TNFα Production; type: in vivo; conditions: 20 mpk (IP); inhibition of serum TNFα vs vehicle
MAPKAPK2 = MAPKAPK2 (Homo sapiens, UniProt P49137); test: biochemical; type: biochemical
Sequence of MAPKAPK2 (P49137 whole entry, species assumed): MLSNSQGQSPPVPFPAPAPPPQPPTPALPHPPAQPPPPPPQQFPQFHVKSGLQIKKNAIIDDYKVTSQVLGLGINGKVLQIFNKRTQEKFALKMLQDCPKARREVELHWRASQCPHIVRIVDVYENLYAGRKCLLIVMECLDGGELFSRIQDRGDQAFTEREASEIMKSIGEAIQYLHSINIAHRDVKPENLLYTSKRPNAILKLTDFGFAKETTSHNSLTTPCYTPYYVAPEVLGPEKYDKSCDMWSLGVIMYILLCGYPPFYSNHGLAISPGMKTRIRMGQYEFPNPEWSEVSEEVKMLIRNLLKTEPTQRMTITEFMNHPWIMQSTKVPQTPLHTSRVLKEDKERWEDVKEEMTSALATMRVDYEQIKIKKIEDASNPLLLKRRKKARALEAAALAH
Method: The phosphorylation of HSP-peptide ([sequence]) by MAPKAPK2 was measured using an anion exchange resin capture assay method. […] The reaction was terminated and [γ^33P]ATP was removed from solution by the addition of 150 μl of AG 1×8 ion exchange resin in 900 mM sodium formate pH 3.0. A 50 μl aliquot of head volume was removed from the quenched reaction mixture and added to a 96-well plate, 150 μl of Microscint-40 (Packard) was added and the amount of phosphorylated-peptide was determined.
Compounds are evaluated as potential inhibitors of the MK2 kinase by measuring their effects on MK2 phosphorylation of the peptide substrate. Compounds may be screened initially at two concentrations prior to determination of IC50 values. Screening results are expressed as percent inhibition at the concentrations of compound tested. For IC50 value determinations, compounds are tested at six concentrations in ten-fold serial dilutions with each concentration tested in triplicate. Results are expressed as IC50 values in micromolar. The assay is performed at a final concentration of 2% DMSO.

[2] = HSP-peptide substrate, 0.03 mM ATP, 2% DMSO, read-out: MK-2 Avg. IC50

Row | SMILES | IC50 (MAPKAPK2; [2]) | also measured
1 | N#Cc1c(N)nc2c(c1N)Cc1ccc(OCCN)cc1O2 [No. 19, 2,4-diamino-8-(2-aminoethoxy)-5H-chromeno[2,3-b]pyridine-3-carbonitrile hydrochloride] | – | IC50 (TNFα release, U937 cells; U-937, 4 h): 6.9 µM; Rat LPS Assay inhibition [1]: 88%
2 | N#Cc1c(N)nc2c(c1N)Cc1ccc(OCCN3CCCC3)cc1O2.O=C(O)C(F)(F)F [No. 25, 2,4-diamino-8-(2-pyrrolidin-1-ylethoxy)-5H-chromeno[2,3-b]pyridine-3-carbonitrile] | – | IC50 (TNFα release, U937 cells; U-937, differentiated U937 cells, LPS 100 ng/ml, 4 hrs): 2.9 µM; Rat LPS Assay inhibition [1]: 60%
3 | N#Cc1c(N)nc2c(c1N)Cc1ccc(OCCN3CCOCC3)cc1O2 [No. 28, trifluoroacetate] | – | IC50 (MAPKAPK2): 0.91 µM
4 | Cc1ccc2c(c1)Oc1nc(N)c(C#N)c(N)c1C2 [No. 42, trifluoroacetate] | ≥ 200 µM | –
5 | COc1cc(OC)c2c(c1)Oc1nc(N)c(C#N)c(N)c1C2 [No. 62, trifluoroacetate] | ≥ 200 µM | –
6 | COc1cccc2c1Cc1c(nc(N)c(C#N)c1N)O2 [No. 70, trifluoroacetate] | ≥ 200 µM | –
7 | N#Cc1c(N)nc2c(c1N)Cc1cc(OC(F)(F)F)ccc1O2 [No. 70, trifluoroacetate] | ≥ 200 µM | –
8 | N#Cc1c(N)nc2c(c1N)Cc1cccc(C(=O)O)c1O2 [No. 81, trifluoroacetate] | – | IC50 (MAPKAPK2): ≥ 200 µM
9 | N#Cc1c(N)nc2c(c1N)Cc1cccc(OCc3ccncc3)c1O2 [No. 83] | ≥ 200 µM | –
10 | COc1cc2c(cc1OC)Oc1nc(N)c(C#N)c(NCCN3C(=O)c4ccccc4C3=O)c1C2 [No. 94] | ≥ 200 µM | –
11 | CCNc1nc2c(c(NCC)c1C#N)Cc1cc(OC)c(OC)cc1O2 [No. 103, trifluoroacetate] | ≥ 200 µM | –
